The values that follow come from ChEMBL document CHEMBL1201862, “PubChem BioAssay data set” (2004).

Test [1] can be described thus: viability loss in Vero cells – cytotoxicity control for Vif-APOBEC3G degradation inhibitor project, dose response (AID 1117358). Type of test: functional. The following applies: Vero.
The nature of test [2]: Trypanosoma cruzi growth suppression in host cells – NIH3T3 host cells, beta-gal luminescence, confirmation (AID 2044).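 Note: intracellular parasites grown in NIH/3T3 mouse fibroblasts as host cells; luminescent beta-galactosidase reporter signal from transgenic T. cruzi replicating inside host cells; inhibitors lower the luminescence signal.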 Type of test: functional, cell-based.
Test [3] can be described thus: NIH3T3 cell viability loss – ATP luminescence, mouse fibroblasts, counter-screen, dose response (AID 2010).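 Note: cells exposed to compound for about 90 hours before reading.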 Type of test: functional, cell-based. (Counterscreens check selectivity or assay interference.)
Test [4] can be described thus: HIV-1 Vif–A3G interaction blockers – biochemical, TR-FRET, GST-Vif 1-94, biotin-A3G peptide, dose response retest, primary screen (AID 1117319).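 Note: TR-FRET signal of purified GST-Vif binding a biotinylated A3G peptide; inhibitors lower the FRET signal by blocking Vif and A3G binding.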 Type of test: functional.
The next test deals with INS1. Put plainly: INS-1E survival protection against cytokine death – cell-based, luminescence, retest, dose response (AID 449756).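 Note: cell death triggered by IL-1 beta plus TNF-alpha plus IFN-gamma mixture; protective hits raise ATP signal compared with cytokine alone wells.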 Type of test: functional. The following applies: Rattus norvegicus.
The target of a further test is T1, Coagulation factor XII (Homo sapiens, UniProt P00748).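 Note: activated factor XIIa alpha cleaving a fluorogenic AMC peptide substrate; inhibitor potency from loss of enzyme activity.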
T1 sequence (P00748 whole entry): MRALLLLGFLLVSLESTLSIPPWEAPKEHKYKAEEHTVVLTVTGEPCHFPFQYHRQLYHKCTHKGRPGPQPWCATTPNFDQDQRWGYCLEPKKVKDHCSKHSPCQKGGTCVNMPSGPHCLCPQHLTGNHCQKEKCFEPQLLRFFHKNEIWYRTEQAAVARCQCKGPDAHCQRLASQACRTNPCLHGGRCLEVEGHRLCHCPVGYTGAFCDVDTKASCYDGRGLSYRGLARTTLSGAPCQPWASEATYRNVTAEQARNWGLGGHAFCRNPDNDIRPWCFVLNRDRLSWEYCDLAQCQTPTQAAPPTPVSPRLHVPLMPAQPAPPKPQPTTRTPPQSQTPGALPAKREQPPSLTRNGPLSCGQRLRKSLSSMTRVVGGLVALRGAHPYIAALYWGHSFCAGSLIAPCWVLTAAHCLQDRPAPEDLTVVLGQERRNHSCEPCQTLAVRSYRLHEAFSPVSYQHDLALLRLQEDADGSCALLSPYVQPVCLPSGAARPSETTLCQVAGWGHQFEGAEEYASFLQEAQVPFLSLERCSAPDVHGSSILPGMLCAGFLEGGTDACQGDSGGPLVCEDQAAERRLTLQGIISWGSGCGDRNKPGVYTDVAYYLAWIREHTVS
Type of test: functional.

For test [5], the target named is T2, Sphingosine 1-phosphate receptor 2 (Homo sapiens, UniProt O95136). Put plainly: Dose Response Cell Based Assay for Agonists of the S1P2 Receptor. [Related pubchem assays: 729, 736, 843 ]. Type of test: functional.
A short description of test [6]: blockers of bursicon-stimulated LGR2 cAMP reporter – cell-based, HEK293, CRE-luciferase reporter, cherry pick, set 2, dose response (AID 743343).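 Note: transfected cells were stimulated with diluted bursicon conditioned medium after compound addition.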 Type of test: functional. Background: In a reporter assay the amount or activity of a reporter protein is the signal.
The nature of test [7]: Late stage counterscreen results from the probe development effort to identify activators of signal transducer and activator of transcription 1 (STAT1): luminescence-based cell-based dose response assay to identify cytotoxic compounds. Type of test: functional.
A short description of test [8]: blockade of melanocortin 4 receptor signaling – cell-based, plate reader, cherry pick, counter-screen for LGR2 antagonist project, dose response (AID 743444).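 Note: transfected HEK 293 cells stimulated with alpha-MSH peptide; potency of inhibitors of the alpha-MSH evoked signal.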 Type of test: functional.
Test [9] has as its target E3 ubiquitin-protein ligase Mdm2 (Homo sapiens, UniProt Q00987). Put plainly: MDM2-luc reporter signal enhancers, multi-concentration potency testing, MDM2 ubiquitin-protein ligase inhibitor program, whole-cell format, luminescence detection, 384-well microplate (AID 1394).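 Note: MDM2 E3 inhibitors raise luminescence so EC50 is for signal enhancement.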 Type of test: functional.
Test [10] addresses T2, Sphingosine 1-phosphate receptor 2. Description: Dose Response Cell Based Assay for Antagonists of the S1P2 Receptor. [Related pubchem assays: 856, 736 ]. Type of test: functional.
The target of the next test is T3, Aminopeptidase N (Plasmodium falciparum FcB1/Columbia, UniProt O96935).
T3 sequence (O96935 whole entry): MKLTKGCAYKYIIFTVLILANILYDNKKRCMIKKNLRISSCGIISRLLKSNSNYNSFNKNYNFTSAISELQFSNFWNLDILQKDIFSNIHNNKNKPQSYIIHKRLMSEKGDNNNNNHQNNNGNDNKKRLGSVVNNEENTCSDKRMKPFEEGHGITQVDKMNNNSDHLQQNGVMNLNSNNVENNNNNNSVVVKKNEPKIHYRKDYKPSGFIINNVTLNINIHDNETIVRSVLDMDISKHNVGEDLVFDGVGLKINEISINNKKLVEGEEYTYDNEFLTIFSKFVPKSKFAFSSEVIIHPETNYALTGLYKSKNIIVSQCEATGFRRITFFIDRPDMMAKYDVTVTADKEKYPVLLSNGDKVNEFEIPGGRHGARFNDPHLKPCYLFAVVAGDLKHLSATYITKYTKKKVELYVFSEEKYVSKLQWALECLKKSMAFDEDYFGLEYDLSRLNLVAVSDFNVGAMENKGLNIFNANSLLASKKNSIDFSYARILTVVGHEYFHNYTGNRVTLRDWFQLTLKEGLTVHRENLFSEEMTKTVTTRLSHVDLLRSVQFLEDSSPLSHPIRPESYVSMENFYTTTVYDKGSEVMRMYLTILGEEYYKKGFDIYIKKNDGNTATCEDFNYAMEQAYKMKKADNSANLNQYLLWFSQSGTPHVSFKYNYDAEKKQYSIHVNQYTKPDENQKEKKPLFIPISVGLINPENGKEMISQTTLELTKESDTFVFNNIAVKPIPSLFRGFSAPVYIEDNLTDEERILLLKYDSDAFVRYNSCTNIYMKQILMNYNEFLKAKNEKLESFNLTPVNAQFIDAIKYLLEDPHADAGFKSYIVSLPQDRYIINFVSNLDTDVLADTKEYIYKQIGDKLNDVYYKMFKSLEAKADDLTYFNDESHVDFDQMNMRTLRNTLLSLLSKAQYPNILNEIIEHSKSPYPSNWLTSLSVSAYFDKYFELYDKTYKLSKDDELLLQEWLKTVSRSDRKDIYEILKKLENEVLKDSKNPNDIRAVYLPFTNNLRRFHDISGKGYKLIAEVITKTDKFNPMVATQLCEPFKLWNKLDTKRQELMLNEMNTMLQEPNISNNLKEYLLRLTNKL
Description: malaria alanyl aminopeptidase activity blockers – biochemical, fluorogenic H-Leu-NHMec substrate, 1536-well (AID 1445). Also noted: species or system Plasmodium falciparum 3D7, 3D7.

For test [11], the target named is Bifunctional protein GlmU (Mycobacterium tuberculosis, UniProt P9WMN3). Put plainly: Inhibitors of Mycobacterial Glucosamine-1-phosphate acetyl transferase (GlmU). Secondary screen. Also on record: species or system Mycobacterium tuberculosis H37Rv.
The target in the next test is Cytochrome P450 2C19 (Homo sapiens, UniProt P33261). Description: qHTS Assay for Inhibitors and Substrates of Cytochrome P450 2C19. [Related pubchem assays: 410 ]. Type of test: ADME. The note with it: read-out: Potency. On the technique in general: In qHTS, concentration-response curves come from the screen itself.
The target in another test is Cytochrome P450 2C9 (Homo sapiens, UniProt P11712). The note with it: Potency.
Test [12] concerns the target Glutathione-S-transferase (Schistosoma japonicum, UniProt Q26513). Description: GST-antibody interaction or FRET quenching – biochemical, TR-FRET, artefact control for Vif-APOBEC3G degradation inhibitor project, dose response (AID 1117362). Type of test: functional.

Calls of active or inactive are those of the source.

T2 sequence (O95136 whole entry): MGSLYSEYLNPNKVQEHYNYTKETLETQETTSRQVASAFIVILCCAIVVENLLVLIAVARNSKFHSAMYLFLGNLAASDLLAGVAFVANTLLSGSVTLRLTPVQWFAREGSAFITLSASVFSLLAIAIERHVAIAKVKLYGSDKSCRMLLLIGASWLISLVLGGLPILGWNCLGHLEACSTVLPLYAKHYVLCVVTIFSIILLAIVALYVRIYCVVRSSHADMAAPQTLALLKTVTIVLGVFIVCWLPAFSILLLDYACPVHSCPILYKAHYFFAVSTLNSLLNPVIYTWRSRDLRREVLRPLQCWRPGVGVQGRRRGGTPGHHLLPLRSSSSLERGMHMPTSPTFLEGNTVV
Chain of Glutathione-S-transferase (Q26513 whole entry): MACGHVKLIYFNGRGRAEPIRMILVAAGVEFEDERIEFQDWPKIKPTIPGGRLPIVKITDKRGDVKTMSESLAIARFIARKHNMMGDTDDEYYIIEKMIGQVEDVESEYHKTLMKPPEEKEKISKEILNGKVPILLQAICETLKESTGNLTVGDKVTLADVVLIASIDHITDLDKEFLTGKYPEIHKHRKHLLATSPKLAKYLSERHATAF
Chain of Bifunctional protein GlmU (P9WMN3 whole entry): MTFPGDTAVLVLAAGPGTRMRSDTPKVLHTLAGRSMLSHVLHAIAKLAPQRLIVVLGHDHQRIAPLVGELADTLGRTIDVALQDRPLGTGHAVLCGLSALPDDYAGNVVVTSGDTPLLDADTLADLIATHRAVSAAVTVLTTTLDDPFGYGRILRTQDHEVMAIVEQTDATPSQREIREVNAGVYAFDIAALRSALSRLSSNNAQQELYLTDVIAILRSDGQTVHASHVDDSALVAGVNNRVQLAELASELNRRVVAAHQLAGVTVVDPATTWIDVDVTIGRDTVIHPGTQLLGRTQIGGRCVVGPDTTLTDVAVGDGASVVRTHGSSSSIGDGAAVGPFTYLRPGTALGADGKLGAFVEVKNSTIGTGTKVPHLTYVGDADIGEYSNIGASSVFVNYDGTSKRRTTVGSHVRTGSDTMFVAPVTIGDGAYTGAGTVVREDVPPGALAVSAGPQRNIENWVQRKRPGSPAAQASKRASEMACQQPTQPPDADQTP
Chain of Cytochrome P450 2C9 (P11712 whole entry): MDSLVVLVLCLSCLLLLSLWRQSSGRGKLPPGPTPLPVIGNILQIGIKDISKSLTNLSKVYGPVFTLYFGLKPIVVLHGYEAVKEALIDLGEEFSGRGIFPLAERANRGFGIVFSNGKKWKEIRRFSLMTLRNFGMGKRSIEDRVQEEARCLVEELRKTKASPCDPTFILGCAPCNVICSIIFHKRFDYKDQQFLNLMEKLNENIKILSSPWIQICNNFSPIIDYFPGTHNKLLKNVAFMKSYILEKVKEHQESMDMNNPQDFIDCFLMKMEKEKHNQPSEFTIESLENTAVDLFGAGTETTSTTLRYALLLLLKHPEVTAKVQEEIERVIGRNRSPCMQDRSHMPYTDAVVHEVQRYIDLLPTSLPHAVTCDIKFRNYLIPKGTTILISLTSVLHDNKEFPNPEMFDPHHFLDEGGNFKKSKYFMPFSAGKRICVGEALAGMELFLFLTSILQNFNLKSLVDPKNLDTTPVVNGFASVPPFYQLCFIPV
Chain of E3 ubiquitin-protein ligase Mdm2 (Q00987 whole entry): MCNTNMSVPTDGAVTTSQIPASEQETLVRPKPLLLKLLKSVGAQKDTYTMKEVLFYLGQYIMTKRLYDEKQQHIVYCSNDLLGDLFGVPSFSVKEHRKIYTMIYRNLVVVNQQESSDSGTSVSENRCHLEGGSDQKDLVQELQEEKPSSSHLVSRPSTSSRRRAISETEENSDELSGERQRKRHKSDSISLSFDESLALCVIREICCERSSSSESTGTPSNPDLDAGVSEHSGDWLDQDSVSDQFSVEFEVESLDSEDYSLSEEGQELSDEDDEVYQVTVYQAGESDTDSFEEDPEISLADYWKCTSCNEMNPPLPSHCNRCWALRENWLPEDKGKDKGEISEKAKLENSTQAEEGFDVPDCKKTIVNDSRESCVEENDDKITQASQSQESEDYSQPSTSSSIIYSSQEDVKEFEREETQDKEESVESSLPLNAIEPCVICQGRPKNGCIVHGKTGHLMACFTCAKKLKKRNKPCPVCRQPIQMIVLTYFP
Chain of Cytochrome P450 2C19 (P33261 whole entry): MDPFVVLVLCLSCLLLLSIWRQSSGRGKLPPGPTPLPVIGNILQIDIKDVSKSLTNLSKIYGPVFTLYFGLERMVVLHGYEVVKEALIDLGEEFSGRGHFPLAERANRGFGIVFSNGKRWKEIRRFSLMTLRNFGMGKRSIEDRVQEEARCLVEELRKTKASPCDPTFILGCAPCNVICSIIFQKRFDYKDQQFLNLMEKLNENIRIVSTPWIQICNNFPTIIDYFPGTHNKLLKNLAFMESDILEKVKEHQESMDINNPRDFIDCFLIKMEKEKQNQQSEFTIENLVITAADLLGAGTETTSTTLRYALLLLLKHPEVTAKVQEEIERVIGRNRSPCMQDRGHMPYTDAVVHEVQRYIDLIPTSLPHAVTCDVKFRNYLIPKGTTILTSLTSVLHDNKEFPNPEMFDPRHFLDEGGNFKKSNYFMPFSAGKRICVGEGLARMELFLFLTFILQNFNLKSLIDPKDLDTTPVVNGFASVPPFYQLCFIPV

Turning to `Cc1ccccc1N1CCN(Cc2c[nH]c3ccccc23)CC1`, in test [1], the 50% cytotoxic concentration (CC50) (in general, the concentration at which the toxic effect on the cells reaches its halfway point) is > 40 µM (active). Further, the EC50 (as a rule, the concentration at which the effect is half-maximal) in test [2] was 0.623 µM (active); in test [3], > 60 µM (not active). For the same compound, the results for the IC50 (in test [4]; at Coagulation factor XII) were > 100 µM (active) and > 50 µM (inactive), respectively. Further, the AC50 in the test on INS1 is 7.61 µM (active).

In the case of `Oc1cccc(C(=S)N2CCN(Cc3ccccc3)CC2)c1`, the EC50 in test [5] is reported as > 50 µM (not active).

On to `COc1ccc(-c2cc(C)nc3c(-c4ccccc4)cnn23)cc1`, for which the AC50 was 15.9 µM (active) in test [6] and 20.1 µM (active) in [8]. In addition, the IC50 (in general, the concentration needed to halve the response being measured) in [7] is reported as > 55.7 µM (not active).

For `CC(C)Oc1ccc(C(=O)NC(=S)N2CCOCC2)cc1`, the EC50 in test [9] is reported as 25 µM (not active).

Regarding `CCOC(=O)C1C(=O)CC(C)(O)C(C(=O)OCC)C1c1ccccc1` (stereo not drawn), the IC50 in [10] is listed as > 50 µM (not active).

In the case of `O=C(CCCN1C(=O)/C(=C/c2ccco2)SC1=S)Nc1ccccc1C(=O)O`, the results for the IC50 (at Aminopeptidase N; in [11]) were 102 µM (active) and 86 µM (active), respectively.

As to `CC(C)C[C@@H](CC(=O)N[C@@H](CCCN)CC(=O)N[C@@H]1CCCC[C@H]1C(=O)N[C@H](CC(=O)N[C@@H](CCC(=O)O)CC(=O)O)Cc1ccccc1)NC(=O)[C@@H]1CCCC[C@H]1N`, the AC50 at Cytochrome P450 2C19 is 39.8 µM (inconclusive); on Cytochrome P450 2C9, 3.98 µM (inconclusive).

In the case of `CCN1CCN(c2ccc(NC(=O)Cc3ccccc3)cc2)CC1`, the IC50 in test [12] and in [4] was > 100 µM (active) throughout.
